Literature values as cited in PubChem BioAssay AID1259409 (Chemical Carcinogenesis Research Information System (CCRIS), 2018).

Test system: rodent chemically induced tumor inhibition, incidence and multiplicity
Assay: CCRIS tumor inhibitor studies

## Oc1ccc(O)cc1
Carcinogen: BENZO[A]PYRENE, 50-32-8, Dose [Inhibitor]: 5 MG IN 0.1 ML ACETONE 3/WK ADMINISTERED SIMULTANEOUSLY WITH CARCINOGEN FOR DURATION OF STUDY (STUDY DURATION: 368 D), Route [Inhibitor]: DERMAL, Species: MOUSE, Strain/Sex: ICR/FEMALE, Target Tissue: Type of Lesion: SKIN: PAPILLOMA, Dose [Carcinogen]: 5 UG IN 0.1 ML ACETONE 3/WK FOR DURATION OF STUDY, Promoter: NONE USED
  tumour outcome (control, treated, inhibition, significance): 14/50 (28%), 7/50 (14%), 50%, not calculated
Carcinogen: BENZO[A]PYRENE, 50-32-8, Dose [Inhibitor]: 5 MG IN 0.1 ML ACETONE 3/WK ADMINISTERED SIMULTANEOUSLY WITH CARCINOGEN FOR DURATION OF STUDY (STUDY DURATION: 368 D), Route [Inhibitor]: DERMAL, Species: MOUSE, Strain/Sex: ICR/FEMALE, Target Tissue: Type of Lesion: SKIN: SQUAMOUS CARCINOMA, Dose [Carcinogen]: 5 UG IN 0.1 ML ACETONE 3/WK FOR DURATION OF STUDY, Promoter: NONE USED
  tumour outcome (control, treated, inhibition, significance): 10/50 (20%), 3/50 (6%), 70%, not calculated
Carcinogen: N-ETHYL-N-HYDROXYETHYLNITROSAMINE, 13147-25-6, Dose [Inhibitor]: 0, 0.8% IN DIET FOR 36 WK BEGINNING 1 WK POST CARCINOGEN TREATMENT (STUDY DURATION: 40 WK), Route [Inhibitor]: ORAL, Species: RAT, Strain/Sex: WISTAR/MALE, Target Tissue: Type of Lesion: LIVER: HEPATOCELLULAR ADENOMA, Dose [Carcinogen]: 0.1% IN DRINKING WATER FOR 3 WK, Promoter: NONE USED
  tumour outcome (control, treated, inhibition, significance): 10/17 (59%), 11/18 (61%), -3%, not significant
Carcinogen: N-ETHYL-N-HYDROXYETHYLNITROSAMINE, 13147-25-6, Dose [Inhibitor]: 0, 0.8% IN DIET FOR 36 WK BEGINNING 1 WK POST CARCINOGEN TREATMENT (STUDY DURATION: 40 WK), Route [Inhibitor]: ORAL, Species: RAT, Strain/Sex: WISTAR/MALE, Target Tissue: Type of Lesion: LIVER: HEPATOCELLULAR CARCINOMA, Dose [Carcinogen]: 0.1% IN DRINKING WATER FOR 3 WK, Promoter: NONE USED
  tumour outcome (control, treated, inhibition, significance): 7/17 (41%), 3/18 (17%), 56%, not significant

## C=CC1=C(C)C2=NC1=CC1=NC(=CC3=C(C)C4=C(O)[C@H](C(=O)OC)C(=C5NC(=C2)[C@@H](C)[C@@H]5CCC(=O)O)C4=N3)C(CC)=C1C
Carcinogen: 7,12-DIMETHYLBENZ[A]ANTHRACENE, 57-97-6, Dose [Inhibitor]: 0, 16 NMOL IN 0.1 ML ACETONE 2/WK FOR 20 WK APPLIED 40 MIN PRIOR TO EACH PROMOTER DOSE (STUDY DURATION: 21 WK), Route [Inhibitor]: DERMAL, Species: MOUSE, Strain/Sex: ICR/FEMALE, Target Tissue: Type of Lesion: SKIN: TUMOR, Dose [Carcinogen]: 0.19 UMOL IN 0.1 ML ACETONE ONCE, Promoter: 12-O-TETRADECANOYLPHORBOL-13-ACETATE, 16561-29-8
  tumour outcome (control, treated, inhibition, significance): 100%, 72%, 28%, p<0.005
Carcinogen: 7,12-DIMETHYLBENZ[A]ANTHRACENE, 57-97-6, Dose [Inhibitor]: 0, 160 NMOL IN 0.1 ML ACETONE 2/WK FOR 20 WK APPLIED 40 MIN PRIOR TO EACH PROMOTER DOSE (STUDY DURATION: 21 WK), Route [Inhibitor]: DERMAL, Species: MOUSE, Strain/Sex: ICR/FEMALE, Target Tissue: Type of Lesion: SKIN: TUMOR, Dose [Carcinogen]: 0.19 UMOL IN 0.1 ML ACETONE ONCE, Promoter: 12-O-TETRADECANOYLPHORBOL-13-ACETATE, 16561-29-8
  tumour outcome (control, treated, inhibition, significance): 100%, 69%, 31%, p<0.005

## CC(N)C(=O)NCC(=O)NC1CSSCC(C(=O)O)NC(=O)C(CO)NC(=O)C(C(C)O)NC(=O)C(Cc2ccccc2)NC(=O)C(C(C)O)NC(=O)C(CCCCN)NC(=O)C(Cc2c[nH]c3ccccc23)NC(=O)C(Cc2ccccc2)NC(=O)C(Cc2ccccc2)NC(=O)C(CC(N)=O)NC(=O)C(CCCCN)NC1=O (configuration not stated)
Carcinogen: N-NITROSOMORPHOLINE, 59-89-2, Dose [Inhibitor]: 0, 200 UG/KG BW 1/2 D FOR DURATION OF STUDY (STUDY DURATION: 16 WK), Route [Inhibitor]: SUBCUTANEOUS, Species: RAT, Strain/Sex: SPRAGUE-DAWLEY/MALE, Target Tissue: Type of Lesion: LIVER: HEPATOCELLULAR CARCINOMA, Dose [Carcinogen]: 175 MG/L DRINKING WATER FOR 8 WK, Promoter: NONE USED
  tumour outcome (control, treated, inhibition, significance): 8/25 (32%), 4/25 (16%), 50%, not significant

## CCCC(=O)O
Carcinogen: 7,12-DIMETHYLBENZ[A]ANTHRACENE, 57-97-6, Dose [Inhibitor]: 0, 6% IN BASAL DIET BEGINNING 1 WK PRIOR TO CARCINOGEN DOSE AND CONTINUING FOR DURATION OF STUDY (STUDY DURATION: >15 WK, Route [Inhibitor]: ORAL, Species: RAT, Strain/Sex: SPRAGUE-DAWLEY/FEMALE, Target Tissue: Type of Lesion: MAMMARY GLAND: ADENOCARCINOMA, Dose [Carcinogen]: 5 MG IN 0.5 ML CORN OIL ONCE, Promoter: NONE USED
  tumour outcome (control, treated, inhibition, significance): 10/26 (38%), 4/20 (20%), 47%, not significant
Carcinogen: 7,12-DIMETHYLBENZ[A]ANTHRACENE, 57-97-6, Dose [Inhibitor]: 0, 6% IN BASAL DIET BEGINNING 1 WK PRIOR TO CARCINOGEN DOSE AND CONTINUING FOR DURATION OF STUDY (STUDY DURATION: >15 WK, Route [Inhibitor]: ORAL, Species: RAT, Strain/Sex: SPRAGUE-DAWLEY/FEMALE, Target Tissue: Type of Lesion: MAMMARY GLAND: CARCINOMA, Dose [Carcinogen]: 5 MG IN 0.5 ML CORN OIL ONCE, Promoter: NONE USED
  tumour outcome (control, treated, inhibition, significance): 11/26 (42%), 8/20 (40%), 5%, not significant
Carcinogen: 7,12-DIMETHYLBENZ[A]ANTHRACENE, 57-97-6, Dose [Inhibitor]: 0, 6% IN DIET CONTAINING 20% SAFFLOWER MARGARINE BEGINNING 1 WK PRIOR TO CARCINOGEN DOSE AND CONTINUING FOR DURATION OF, Route [Inhibitor]: ORAL, Species: RAT, Strain/Sex: SPRAGUE-DAWLEY/FEMALE, Target Tissue: Type of Lesion: MAMMARY GLAND: ADENOCARCINOMA, Dose [Carcinogen]: 5 MG IN 0.5 ML CORN OIL ONCE, Promoter: NONE USED
  tumour outcome (control, treated, inhibition, significance): 14/19 (74%), 8/20 (40%), 46%, p<0.05
Carcinogen: 7,12-DIMETHYLBENZ[A]ANTHRACENE, 57-97-6, Dose [Inhibitor]: 0, 6% IN DIET CONTAINING 20% SAFFLOWER MARGARINE BEGINNING 1 WK PRIOR TO CARCINOGEN DOSE AND CONTINUING FOR DURATION OF, Route [Inhibitor]: ORAL, Species: RAT, Strain/Sex: SPRAGUE-DAWLEY/FEMALE, Target Tissue: Type of Lesion: MAMMARY GLAND: CARCINOMA, Dose [Carcinogen]: 5 MG IN 0.5 ML CORN OIL ONCE, Promoter: NONE USED
  tumour outcome (control, treated, inhibition, significance): 16/19 (84%), 11/20 (55%), 35%, p<0.05

## CC[C@H](C)/C=C/C1=CC2=C(Cl)C(=O)[C@@]3(C)OC(=O)C(C(=O)[C@@H](C)[C@@H](C)O)=C3C2=CO1
Carcinogen: 7,12-DIMETHYLBENZ[A]ANTHRACENE, 57-97-6, Dose [Inhibitor]: 0, 2 UMOL 2/WK FOR 18 WK APPLIED 30 MIN PRIOR TO EACH PROMOTER DOSE BEGINNING 1 WK POST CARCINOGEN DOSE (STUDY DURATION:, Route [Inhibitor]: DERMAL, Species: MOUSE, Strain/Sex: ICR/FEMALE, Target Tissue: Type of Lesion: SKIN: PAPILLOMA, Dose [Carcinogen]: 50 UG ONCE, Promoter: 12-O-TETRADECANOYLPHORBOL-13-ACETATE, 16561-29-8
  tumour outcome (control, treated, inhibition, significance): 100%, 33%, 67%, not calculated

## CCN(CC)CCCCCCCCOC(=O)c1cc(OC)c(OC)c(OC)c1
Carcinogen: 7,12-DIMETHYLBENZ[A]ANTHRACENE, 57-97-6, Dose [Inhibitor]: 0, 1.1 UMOL 1/WK FOR 27 WK APPLIED 1 HR POST EACH PROMOTER DOSE (STUDY DURATION: 27 WK), Route [Inhibitor]: DERMAL, Species: MOUSE, Strain/Sex: SENCAR/FEMALE, Target Tissue: Type of Lesion: SKIN: PAPILLOMA, Dose [Carcinogen]: 25 NMOL ONCE, Promoter: CHRYSAROBIN, 491-58-7
  tumour outcome (control, treated, inhibition, significance): 85%, 73%, 14%, not significant
Carcinogen: 7,12-DIMETHYLBENZ[A]ANTHRACENE, 57-97-6, Dose [Inhibitor]: 0, 4.4 UMOL 1/WK FOR 27 WK APPLIED 1 HR POST EACH PROMOTER DOSE (STUDY DURATION: 27 WK), Route [Inhibitor]: DERMAL, Species: MOUSE, Strain/Sex: SENCAR/FEMALE, Target Tissue: Type of Lesion: SKIN: PAPILLOMA, Dose [Carcinogen]: 25 NMOL ONCE, Promoter: CHRYSAROBIN, 491-58-7
  tumour outcome (control, treated, inhibition, significance): 85%, 82%, 4%, not significant

## COc1c(O)cc(C2Oc3c(c(O)cc(O)c3[C@H]3c4c(O)cc(O)cc4O[C@H](c4ccc(O)cc4)[C@@H]3O)C[C@H]2O)cc1O (some centres not stated)
Carcinogen: DIMETHYLNITROSAMINE [62-75-9], Dose [Inhibitor]: 100 MG/KG BW FOR 3 MO ADMINISTERED BEFORE CARCINOGEN (STUDY DURATION: 12 MO), Route [Inhibitor]: DIET, Species: MOUSE, Strain/Sex: B6C3F1/MALE, Target Tissue: Type of Lesion: LIVER: TUMOR, Dose [Carcinogen]: 5 MG/KG BW 3 X A WK FOR 2 MO, THEN 10 MG/KG 2 X WK FOR 4 WKS AFTER 3 MO OF GSPE
  tumour outcome (control, treated, inhibition, significance): 85% (dmn); 60% gspe before dmn, 29%, not calculated
Carcinogen: DIMETHYLNITROSAMINE [62-75-9], Dose [Inhibitor]: 100 MG/KG BW FOR 9 MO AFTER CARCINOGEN TREATMENT (STUDY DURATION: 12 MO), Route [Inhibitor]: DIET, Species: MOUSE, Strain/Sex: B6C3F1/MALE, Target Tissue: Type of Lesion: LIVER: TUMOR, Dose [Carcinogen]: 5 MG/KG BW 3 X A WK FOR 2 MO, THEN 10 MG/KG 2 X WK FOR 1 MO
  tumour outcome (control, treated, inhibition, significance): 85% (dmn); 55% gspe, 35%, not calculated
Carcinogen: DIMETHYLNITROSAMINE [62-75-9], Dose [Inhibitor]: 100 MG/KG BW FOR DURATION OF EXPERIMENT (STUDY DURATION: 12 MO), Route [Inhibitor]: DIET, Species: MOUSE, Strain/Sex: B6C3F1/MALE, Target Tissue: Type of Lesion: LIVER: TUMOR, Dose [Carcinogen]: 5 MG/KG BW 3 X A WK FOR 2 MO, THEN 10 MG/KG 2 X WK FOR 4 WKS
  tumour outcome (control, treated, inhibition, significance): 85% (dmn); 45% gspe, 47%, not calculated
